Results as given in patent US20210403485A1, “PYRAZOLOPYRIMIDINE DERIVATIVE AS SELECTIVE TRK INHIBITOR” (SHANDONG LUYE PHARMACEUTICAL CO., LTD., priority 2018, published 2021).
Read-outs that look alike come from different tables or passages of the source.

Legend:
Ba/F3 SLC34A2-ROS1-WT = target: T1, Ba/F3 SLC34A2-ROS1-WT (Homo sapiens, UniProt P08922); experiment: Inhibitory activity against cell proliferation (CellTiter-Glo, 72 hours); type: cell-based; conditions: read-out: Half maximal inhibitory concentration IC50 of cells, Ba/F3 SLC34A2-ROS1-WT
T1 construct: fused on or other part: N-terminal part of SLC34A2 as fusion partner (part of the key); O95436 (Sodium-dependent phosphate transport protein 2B)
T1 sequence (P08922 whole entry, stated change not applied, the tested form may be a part): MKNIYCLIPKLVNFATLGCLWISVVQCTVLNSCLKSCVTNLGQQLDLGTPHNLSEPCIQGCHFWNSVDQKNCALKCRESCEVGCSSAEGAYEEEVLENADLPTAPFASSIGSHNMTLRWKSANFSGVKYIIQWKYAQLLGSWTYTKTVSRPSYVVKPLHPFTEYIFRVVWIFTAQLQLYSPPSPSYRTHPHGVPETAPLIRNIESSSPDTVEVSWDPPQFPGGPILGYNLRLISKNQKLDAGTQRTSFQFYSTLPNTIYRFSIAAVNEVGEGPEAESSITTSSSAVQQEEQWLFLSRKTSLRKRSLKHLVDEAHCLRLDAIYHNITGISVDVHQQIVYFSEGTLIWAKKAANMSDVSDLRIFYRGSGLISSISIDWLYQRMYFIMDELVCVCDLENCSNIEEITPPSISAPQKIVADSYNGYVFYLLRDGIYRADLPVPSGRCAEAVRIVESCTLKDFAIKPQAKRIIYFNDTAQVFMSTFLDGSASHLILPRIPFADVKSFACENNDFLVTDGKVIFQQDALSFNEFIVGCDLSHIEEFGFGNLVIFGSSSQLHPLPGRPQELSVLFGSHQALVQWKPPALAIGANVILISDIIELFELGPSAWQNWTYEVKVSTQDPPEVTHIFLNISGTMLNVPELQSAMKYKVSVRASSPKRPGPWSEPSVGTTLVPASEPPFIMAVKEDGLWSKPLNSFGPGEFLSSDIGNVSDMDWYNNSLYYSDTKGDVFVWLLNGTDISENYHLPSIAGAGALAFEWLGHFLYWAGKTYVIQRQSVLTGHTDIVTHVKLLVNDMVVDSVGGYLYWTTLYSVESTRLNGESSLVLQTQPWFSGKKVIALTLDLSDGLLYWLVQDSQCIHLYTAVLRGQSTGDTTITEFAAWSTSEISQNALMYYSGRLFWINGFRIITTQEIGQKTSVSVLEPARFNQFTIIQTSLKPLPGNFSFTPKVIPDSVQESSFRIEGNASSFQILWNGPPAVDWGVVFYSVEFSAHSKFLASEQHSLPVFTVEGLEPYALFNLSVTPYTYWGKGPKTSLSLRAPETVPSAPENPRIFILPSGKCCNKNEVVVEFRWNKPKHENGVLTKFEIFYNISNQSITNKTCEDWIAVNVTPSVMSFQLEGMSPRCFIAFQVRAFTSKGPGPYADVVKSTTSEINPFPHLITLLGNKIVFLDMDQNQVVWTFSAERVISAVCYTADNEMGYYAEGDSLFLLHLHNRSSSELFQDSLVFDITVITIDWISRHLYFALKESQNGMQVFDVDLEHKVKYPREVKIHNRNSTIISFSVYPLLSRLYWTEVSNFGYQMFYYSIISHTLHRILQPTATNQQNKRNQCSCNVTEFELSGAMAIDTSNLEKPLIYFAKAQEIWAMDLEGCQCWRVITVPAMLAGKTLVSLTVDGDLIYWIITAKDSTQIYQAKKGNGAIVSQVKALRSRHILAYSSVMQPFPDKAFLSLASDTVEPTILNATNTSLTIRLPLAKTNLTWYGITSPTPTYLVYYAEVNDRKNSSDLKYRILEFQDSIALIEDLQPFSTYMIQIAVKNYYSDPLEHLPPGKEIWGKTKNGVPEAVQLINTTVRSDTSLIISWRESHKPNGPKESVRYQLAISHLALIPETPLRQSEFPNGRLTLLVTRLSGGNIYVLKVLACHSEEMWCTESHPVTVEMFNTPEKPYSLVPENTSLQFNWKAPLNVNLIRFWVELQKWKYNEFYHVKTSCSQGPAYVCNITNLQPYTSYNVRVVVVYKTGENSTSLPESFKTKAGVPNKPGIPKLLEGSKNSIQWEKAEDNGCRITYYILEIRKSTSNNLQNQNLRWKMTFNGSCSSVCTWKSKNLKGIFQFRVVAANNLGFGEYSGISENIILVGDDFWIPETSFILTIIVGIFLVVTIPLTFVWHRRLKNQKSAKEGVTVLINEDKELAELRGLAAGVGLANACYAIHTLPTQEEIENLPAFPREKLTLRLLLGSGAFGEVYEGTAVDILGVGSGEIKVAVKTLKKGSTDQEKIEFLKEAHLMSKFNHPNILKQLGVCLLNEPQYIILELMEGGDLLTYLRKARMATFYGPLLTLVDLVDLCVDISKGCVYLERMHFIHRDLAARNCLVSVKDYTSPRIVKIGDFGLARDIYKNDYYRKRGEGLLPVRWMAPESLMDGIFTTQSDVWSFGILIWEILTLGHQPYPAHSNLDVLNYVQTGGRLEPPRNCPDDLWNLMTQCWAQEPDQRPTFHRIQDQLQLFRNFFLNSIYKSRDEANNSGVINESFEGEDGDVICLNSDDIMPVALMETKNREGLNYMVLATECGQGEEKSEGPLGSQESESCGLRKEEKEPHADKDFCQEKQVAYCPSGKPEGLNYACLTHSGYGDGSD
Procedure, shortened: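 Log-phase Ba/F3 cells (trypan blue viability above 90%) were treated in triplicate with a 9-point, 3-fold compound series. ATP-dependent luminescence was read after CellTiter-Glo addition, and IC50 values came from nonlinear sigmoidal dose-response fits.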

Ba/F3 ETV6-NTRK3 cells = experiment: Efficacy test in animals: subcutaneous xenograft, intragastric administration; type: in vivo, nude mice; conditions: for TGI (tumor growth inhibition rate): day of dissection; for Tumor inhibition rate (by tumor weight) / Tumor weight: end of the test
Procedure: (§1) Cells in the logarithmic growth phase were collected and resuspended in serum-free medium to a cell concentration of 2-4×10^7 cells/mL. An equal volume of matrigel was added to the cell suspension to achieve a final cell concentration of 1-2×10^7 cells/mL. 0.2 mL of tumor cell suspension was subcutaneously inoculated at the scapula of each nude mouse with the inoculation amount of 2-4×10^6 cells/mouse to prepare the animal models.

[1] = system: Ba/F3 ETV6-NTRK3-G623R cells; experiment: as above; type: in vivo, nude mice; conditions: for TGI (tumor growth inhibition rate): day of dissection; for Tumor inhibition rate (by tumor weight) / Tumor weight: end of the test
Procedure: as §1

[2] = Animal body weight and general observations, Ba/F3 ETV6-NTRK3-G623R tumor-bearing nude mice
Procedure: (§2) The mice in groups were intragastrically administrated on the next day, and the animal body weight and the long and short diameters of the tumor were measured once every other day.

[3] = Pharmacokinetic test of compounds in mice (plasma, LC/MS/MS); type: in vivo, male CD-1 mice; conditions: for Vd: read-out: Apparent volume of distribution Vd; for AUC(0-t): read-out: Area under the curve AUC0-last; for half-life: read-out: Half-life T1/2 (converted); for Cmax: read-out: Peak concentration Cmax; for Tmax: read-out: Time to peak Tmax
Procedure: Experimental purpose: male CD-1 mice aged 7-9 weeks were selected as test animals, and the drug concentrations of the compounds in plasma at different time points after single intravenous injection (IV) and intragastric administration (PO) of the compounds were measured by an LC/MS/MS method, so that the pharmacokinetic behavior of the compounds disclosed herein in mice was studied, and the pharmacokinetic characteristic of the compounds was evaluated.
Drug preparation: the compounds were all prepared into clear solution by taking 5% DMSO+10% solutol+85% water as vehicle, and were used for administration in IV and PO groups. The dose of each compound administered was: IV, 3 mg/kg; PO, 10 mg/kg.

[4] = Animal body weight and general observations, Ba/F3 ETV6-NTRK3 tumor-bearing nude mice
Procedure: as §2

[5] = male, CD-1, mouse, plasma, IV, 3 mg/kg
[6] = male, CD-1, mouse, plasma, PO, 10 mg/kg

Molecule `O=C(Nc1cnn2ccc(N3CCC[C@@H]3c3cc(F)ccc3F)nc12)N1CC[C@H](O)C1` [LOXO-101, larotrectinib, reference compound] has a GI50 (Ba/F3 SLC34A2-ROS1-WT) of over 1 µM, a Tumor volume (Ba/F3 ETV6-NTRK3 cells; Day 0, 60 mg/kg qd) of 303.89 ± 50.02 mm^3 and a Tumor volume (Ba/F3 ETV6-NTRK3 cells; Day 3, 60 mg/kg qd) of 510.07 ± 224.94 mm^3. The Tumor volume (Ba/F3 ETV6-NTRK3 cells; Day 5, 60 mg/kg qd) was 490.32 ± 170.06 mm^3, the Tumor volume (Ba/F3 ETV6-NTRK3 cells; Day 7, 60 mg/kg qd) was 731.42 ± 372.59 mm^3 and the Tumor volume (Ba/F3 ETV6-NTRK3 cells; Day 9, 60 mg/kg qd) was 1289.62 ± 757.75 mm^3. The Tumor volume (Ba/F3 ETV6-NTRK3 cells; Day 11, 60 mg/kg qd) was 1361.88 ± 710.90 mm^3, the “TGI (tumor growth inhibition rate)” value (Ba/F3 ETV6-NTRK3 cells; 60 mg/kg qd) was 63.87% and the “Tumor inhibition rate (by tumor weight)” value (Ba/F3 ETV6-NTRK3 cells; 60 mg/kg qd) was 63.49%. It also gave a Tumor weight (Ba/F3 ETV6-NTRK3 cells; 60 mg/kg qd) of 0.64 ± 0.44 g, a Tumor volume ([1]; Day 0, 60 mg/kg qd) of 200.39 ± 31.65 mm^3 and a Tumor volume ([1]; Day 3, 60 mg/kg qd) of 552.34 ± 219.25 mm^3. The Tumor volume ([1]; Day 5, 60 mg/kg qd) was 1025.59 ± 347.93 mm^3, the Tumor volume ([1]; Day 7, 60 mg/kg qd) was 1349.08 ± 541.06 mm^3 and the Tumor volume ([1]; Day 9, 60 mg/kg qd) was 1822.21 ± 755.31 mm^3. The Tumor volume ([1]; Day 11, 60 mg/kg qd) was 2375.84 ± 852.18 mm^3, the “TGI (tumor growth inhibition rate)” value ([1]; 60 mg/kg qd) was 31.65% and the “Tumor inhibition rate (by tumor weight)” value ([1]; 60 mg/kg qd) was 25.27%. For the same molecule, the Tumor weight ([1]; 60 mg/kg qd) was 1.28 ± 0.62 g, the “Rate of change in body weight (%) of day 11 to day 0” value ([2]; 60 mg/kg qd) was 6.8% and the Body weight ([2]; Day 0, 60 mg/kg qd) was 23.9 ± 1.4 g. It also gave a Body weight ([2]; Day 3, 60 mg/kg qd) of 24.2 ± 1.8 g, a Body weight ([2]; Day 5, 60 mg/kg qd) of 24.1 ± 2.0 g and a Body weight ([2]; Day 7, 60 mg/kg qd) of 25.0 ± 2.2 g. For the same molecule, the Body weight ([2]; Day 9, 60 mg/kg qd) was 25.3 ± 2.2 g, the Body weight ([2]; Day 11, 60 mg/kg qd) was 25.6 ± 2.4 g and the “Apparent clearance Cl” value ([3]; IV, 3 mg/kg) was 2.24 L/h/kg. It also gave a Vd [3, 5] of 0.97 L/kg, an AUC(0-t) [3, 5] of 3.12 µM·h and a half-life [3, 5] of 23.4 min. It also gave an AUC(0-t) [3, 6] of 2.89 µM·h, a bioavailability ([3]; male, CD-1, mouse, plasma, PO, 10 mg/kg, read-out: Bioavailability F %) of 28% and a Cmax [3, 6] of 1.55 µM. For the same molecule, the Tmax [3, 6] was 22.8 min, the “Rate of change in body weight (%) of day 11 to day 0” value ([4]; 60 mg/kg qd) was 4.4% and the Body weight ([4]; Day 0, 60 mg/kg qd) was 23.8 ± 1.6 g. For the same molecule, the Body weight ([4]; Day 3, 60 mg/kg qd) was 22.9 ± 2.0 g, the Body weight ([4]; Day 5, 60 mg/kg qd) was 23.6 ± 2.2 g and the Body weight ([4]; Day 7, 60 mg/kg qd) was 23.9 ± 2.5 g. It also gave a Body weight ([4]; Day 9, 60 mg/kg qd) of 24.2 ± 2.2 g and a Body weight ([4]; Day 11, 60 mg/kg qd) of 24.7 ± 2.7 g.
For `C[C@@H]1CCc2ncc(F)cc2[C@H]2CCCN2c2ccn3ncc(c3n2)C(=O)N1` [LOXO-195, reference compound], the GI50 (Ba/F3 SLC34A2-ROS1-WT) was 0.0367 µM, the Tumor volume (Ba/F3 ETV6-NTRK3 cells; Day 0, 100 mg/kg bid) was 303.85 ± 42.83 mm^3 and the Tumor volume (Ba/F3 ETV6-NTRK3 cells; Day 3, 100 mg/kg bid) was 351.06 ± 144.65 mm^3. The Tumor volume (Ba/F3 ETV6-NTRK3 cells; Day 5, 100 mg/kg bid) was 216.92 ± 62.19 mm^3, the Tumor volume (Ba/F3 ETV6-NTRK3 cells; Day 7, 100 mg/kg bid) was 174.13 ± 102.49 mm^3 and the Tumor volume (Ba/F3 ETV6-NTRK3 cells; Day 9, 100 mg/kg bid) was 206.69 ± 107.53 mm^3. For the same molecule, the Tumor volume (Ba/F3 ETV6-NTRK3 cells; Day 11, 100 mg/kg bid) was 196.07 ± 88.87 mm^3, the “TGI (tumor growth inhibition rate)” value (Ba/F3 ETV6-NTRK3 cells; 100 mg/kg bid) was 94.80% and the “Tumor inhibition rate (by tumor weight)” value (Ba/F3 ETV6-NTRK3 cells; 100 mg/kg bid) was 94.86%. It also gave a Tumor weight (Ba/F3 ETV6-NTRK3 cells; 100 mg/kg bid) of 0.09 ± 0.07 g, a Tumor volume ([1]; Day 0, 100 mg/kg bid) of 200.27 ± 30.38 mm^3 and a Tumor volume ([1]; Day 3, 100 mg/kg bid) of 282.91 ± 82.61 mm^3. The Tumor volume ([1]; Day 5, 100 mg/kg bid) was 306.00 ± 115.66 mm^3, the Tumor volume ([1]; Day 7, 100 mg/kg bid) was 364.50 ± 212.47 mm^3 and the Tumor volume ([1]; Day 9, 100 mg/kg bid) was 334.53 ± 184.22 mm^3. For the same molecule, the Tumor volume ([1]; Day 11, 100 mg/kg bid) was 345.18 ± 306.01 mm^3, the “TGI (tumor growth inhibition rate)” value ([1]; 100 mg/kg bid) was 90.07% and the “Tumor inhibition rate (by tumor weight)” value ([1]; 100 mg/kg bid) was 91.50%. The Tumor weight ([1]; 100 mg/kg bid) was 0.15 ± 0.14 g, the “Rate of change in body weight (%) of day 11 to day 0” value ([2]; 100 mg/kg bid) was 2.1% and the General observations ([2]; 100 mg/kg bid, the 1# animal, possibly associated with the administration operation) was “developed thorax congestion at D8 and died at D10”. For the same molecule, the Body weight ([2]; Day 0, 100 mg/kg bid) was 23.5 ± 1.2 g, the Body weight ([2]; Day 3, 100 mg/kg bid) was 24.4 ± 1.1 g and the Body weight ([2]; Day 5, 100 mg/kg bid) was 24.4 ± 0.9 g. For the same molecule, the Body weight ([2]; Day 7, 100 mg/kg bid) was 24.6 ± 0.9 g, the Body weight ([2]; Day 9, 100 mg/kg bid) was 24.4 ± 1.2 g and the Body weight ([2]; Day 11, 100 mg/kg bid) was 24.0 ± 1.7 g. For the same molecule, the “Apparent clearance Cl” value ([3]; IV, 3 mg/kg) was 0.708 L/h/kg, the “Bioavailability F %” value ([3]; PO, 10 mg/kg) was 74% and the Vd [3, 5] was 0.5 L/kg. It also gave an AUC(0-t) [3, 5] of 11.1 µM·h, a half-life [3, 5] of 71.4 min and an AUC(0-t) [3, 6] of 27.3 µM·h. For the same molecule, the Cmax [3, 6] was 12.7 µM, the Tmax [3, 6] was 22.8 min and the “Rate of change in body weight (%) of day 11 to day 0” value ([4]; 100 mg/kg bid) was 4.9%. For the same molecule, the Body weight ([4]; Day 0, 100 mg/kg bid) was 22.7 ± 2.7 g, the Body weight ([4]; Day 3, 100 mg/kg bid) was 24.4 ± 2.7 g and the Body weight ([4]; Day 5, 100 mg/kg bid) was 24.9 ± 2.6 g. It also gave a Body weight ([4]; Day 7, 100 mg/kg bid) of 25.1 ± 2.8 g, a Body weight ([4]; Day 9, 100 mg/kg bid) of 25.4 ± 3.0 g and a Body weight ([4]; Day 11, 100 mg/kg bid) of 25.2 ± 3.0 g.
